The values below come from article PMC5991783, “Discovery and Optimization of Indolyl-Containing 4-Hydroxy-2-Pyridone Type II DNA Topoisomerase Inhibitors Active against Multidrug Resistant Gram-negative Bacteria” (Journal of Medicinal Chemistry, 2018).

Converted amounts (≈) assume the structure as drawn. Where a name gives a salt, the structure may show the parent alone. Where only a bound is given, the exact number is not on record here.

In series [1] the test system is E. coli SKM18. The series can be described thus: microbe, parasite or virus in culture. The series is classed as cell-based, Escherichia coli. Particulars: for MIC E. coli^R1: E. coli SKM18.
The subject of series [2] is E. coli ATCC 25922. The series is described as follows: MIC, wild-type E. coli ATCC 25922. The format is cell-based, Escherichia coli. Particulars: for MIC E. coli^WT: E. coli ATCC 25922; for increase in MIC values against the wild-type E. coli strain compared to the permeable strain: E. coli^WT vs E. coli^P; for MIC: Escherichia coli, ATCC25922, read-out: MIC E. coli^WT, E. coli ATCC 25922.

Series [3] relates to A. baumannii MMX2240. The series is described as follows: MIC, fluoroquinolone resistant A. baumannii. The series is classed as cell-based, Acinetobacter baumannii.
In series [4] the test system is Acinetobacter baumannii ATCC BAA-747. The series is described as follows: MIC, wild-type A. baumannii. The series is classed as cell-based. The settings on record: A. baumannii ATCC BAA-747.
The test system of series [5] is Klebsiella pneumoniae ATCC 35657. The series is described as follows: MIC, wild-type K. pneumoniae. Particulars: K. pneumoniae ATCC 35657. The format is cell-based.
Series [6] concerns the target E. coli DNA gyrase (Escherichia coli, UniProt P0AES4+P0AES6). The series is described as follows: biochemical.
The target of series [7] is human topoisomerase II (Homo sapiens, UniProt P11388). The series is described as follows: Human topoisomerase II decatenation assay. Particulars: Supplemental Table 1; read-out: Human Topo II IC50. The series is classed as biochemical.
Sequence of human topoisomerase II (P11388 whole entry): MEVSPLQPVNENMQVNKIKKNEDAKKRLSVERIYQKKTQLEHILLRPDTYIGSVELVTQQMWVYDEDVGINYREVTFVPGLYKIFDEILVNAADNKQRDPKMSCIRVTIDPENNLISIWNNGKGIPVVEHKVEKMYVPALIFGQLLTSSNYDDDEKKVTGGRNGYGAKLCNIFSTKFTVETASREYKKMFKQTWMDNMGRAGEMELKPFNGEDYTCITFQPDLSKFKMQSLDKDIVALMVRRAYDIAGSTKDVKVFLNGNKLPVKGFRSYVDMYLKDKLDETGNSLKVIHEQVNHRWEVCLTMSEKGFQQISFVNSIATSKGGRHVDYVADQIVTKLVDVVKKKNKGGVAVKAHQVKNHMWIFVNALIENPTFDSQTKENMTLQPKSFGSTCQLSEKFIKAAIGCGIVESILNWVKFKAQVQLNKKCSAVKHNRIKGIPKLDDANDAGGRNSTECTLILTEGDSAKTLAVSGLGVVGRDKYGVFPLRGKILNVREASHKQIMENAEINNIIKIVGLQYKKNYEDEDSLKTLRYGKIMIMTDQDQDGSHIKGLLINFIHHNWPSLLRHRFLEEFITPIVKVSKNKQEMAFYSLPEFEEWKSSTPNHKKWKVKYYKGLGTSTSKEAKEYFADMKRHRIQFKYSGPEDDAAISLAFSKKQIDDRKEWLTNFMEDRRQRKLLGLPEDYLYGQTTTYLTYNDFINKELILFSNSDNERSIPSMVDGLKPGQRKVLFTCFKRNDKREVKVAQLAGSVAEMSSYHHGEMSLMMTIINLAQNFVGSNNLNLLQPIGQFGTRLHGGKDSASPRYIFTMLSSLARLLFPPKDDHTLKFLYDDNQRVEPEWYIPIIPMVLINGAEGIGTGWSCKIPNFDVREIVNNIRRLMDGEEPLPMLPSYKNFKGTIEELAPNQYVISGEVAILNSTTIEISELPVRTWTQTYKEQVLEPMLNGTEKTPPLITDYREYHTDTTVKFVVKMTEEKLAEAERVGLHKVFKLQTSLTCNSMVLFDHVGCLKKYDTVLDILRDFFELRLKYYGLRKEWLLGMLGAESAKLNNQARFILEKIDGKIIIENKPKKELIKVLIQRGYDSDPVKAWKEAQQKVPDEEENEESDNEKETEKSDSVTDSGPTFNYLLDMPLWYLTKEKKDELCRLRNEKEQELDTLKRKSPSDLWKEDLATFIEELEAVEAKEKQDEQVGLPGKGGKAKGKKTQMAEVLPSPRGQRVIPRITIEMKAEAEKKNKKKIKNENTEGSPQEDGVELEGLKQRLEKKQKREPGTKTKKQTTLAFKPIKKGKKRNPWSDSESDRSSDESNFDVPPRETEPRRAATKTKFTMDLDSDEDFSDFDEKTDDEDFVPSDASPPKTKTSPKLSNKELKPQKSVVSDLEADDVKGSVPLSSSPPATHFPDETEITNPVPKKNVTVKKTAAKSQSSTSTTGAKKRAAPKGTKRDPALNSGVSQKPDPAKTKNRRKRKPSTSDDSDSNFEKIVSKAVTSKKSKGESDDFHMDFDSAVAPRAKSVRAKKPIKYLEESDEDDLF
Series [8] is described as follows: Pharmacokinetics in CD-1 mice. Particulars: CD-1, mouse, plasma, iv, 10 mg/kg.
Series [9] concerns E. coli^WT (ATCC 25922). The series can be described thus: Mouse septicemia model. The format is in vivo, CD-1 mice. Particulars: Mus musculus, iv, 96 h, read-out: survival.
The test system of series [10] is panel of 12 A. baumannii isolates. The series is described as follows: Susceptibility testing, 12 A. baumannii isolates. The format is cell-based, Acinetobacter baumannii.
The subject of series [11] is panel of 12 E. coli isolates. The series is described as follows: Susceptibility testing, 12 E. coli isolates. The series is classed as cell-based, Escherichia coli.
[12] abbreviates: E. coli enzymatic activity, DNA gyrase IC50.

Sequence of E. coli DNA gyrase (P0AES4 whole entry, one chain of several): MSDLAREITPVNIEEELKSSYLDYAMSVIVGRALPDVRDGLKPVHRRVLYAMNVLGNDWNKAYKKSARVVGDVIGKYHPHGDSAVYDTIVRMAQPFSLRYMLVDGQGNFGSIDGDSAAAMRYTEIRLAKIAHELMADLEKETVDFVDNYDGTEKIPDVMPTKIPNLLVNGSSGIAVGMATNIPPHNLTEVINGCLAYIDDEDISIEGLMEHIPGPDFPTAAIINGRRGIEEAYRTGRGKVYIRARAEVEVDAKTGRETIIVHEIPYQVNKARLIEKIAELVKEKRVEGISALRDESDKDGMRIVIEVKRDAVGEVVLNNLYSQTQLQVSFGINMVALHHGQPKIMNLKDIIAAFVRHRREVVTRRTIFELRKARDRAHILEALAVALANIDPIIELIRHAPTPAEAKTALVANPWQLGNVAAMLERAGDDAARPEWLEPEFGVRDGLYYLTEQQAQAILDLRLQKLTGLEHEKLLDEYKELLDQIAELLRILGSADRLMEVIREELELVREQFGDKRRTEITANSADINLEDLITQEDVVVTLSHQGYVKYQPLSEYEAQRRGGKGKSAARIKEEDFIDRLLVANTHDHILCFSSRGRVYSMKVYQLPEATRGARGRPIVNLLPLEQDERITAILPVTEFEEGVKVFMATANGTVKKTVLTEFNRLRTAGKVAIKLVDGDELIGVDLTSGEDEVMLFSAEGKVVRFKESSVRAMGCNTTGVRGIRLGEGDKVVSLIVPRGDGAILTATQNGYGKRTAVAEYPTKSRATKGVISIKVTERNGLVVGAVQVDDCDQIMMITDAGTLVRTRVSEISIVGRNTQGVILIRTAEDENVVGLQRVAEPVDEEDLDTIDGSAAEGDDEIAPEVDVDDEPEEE

In the case of “10-((sec-Butylamino)methyl)-4-hydroxy-9-methyl-2-oxo-1,2,5,6,7,9-hexahydropyrido[3′,2′:6,7]cyclohepta[1,2-f]indole-3-carboxylic Acid Hydrochloride [Compound 6n]”, the “MIC E. coli^R1” value in [1] came to 0.78 µg/mL. Further, in series [2], the “MIC E. coli^WT” value stood at 0.78 µg/mL. Besides, the “MIC A. bau^R” value in [3] turned out to be 0.50 µg/mL. The “MIC A. bau^WT” value in [4] is 0.78 µg/mL. Moreover, in series [5], the “MIC K. pneu^WT” value was determined as 0.50 µg/mL.

For the compound `CCc1c(-c2ccc3c(ccn3C)c2)[nH]c(=O)c(C(=O)O)c1O` [Compound 2a, 5-Ethyl-4-hydroxy-6-(1-methyl-1H-indol-5-yl)-2-oxo-1,2-dihydropyridine-3-carboxylic Acid], the “increase in MIC values against the wild-type E. coli strain compared to the permeable strain” value in [2] is recorded as “greater than 25 fold”.

Take `CCc1c(-c2ccc3c(c2)cc(C)n3C)[nH]c(=O)c(C(=O)O)c1O` [Compound 2b, 6-(1,2-Dimethyl-1H-indol-5-yl)-5-ethyl-4-hydroxy-2-oxo-1,2-dihydropyridine-3-carboxylic Acid]: the “increase in MIC values against the wild-type E. coli strain compared to the permeable strain” value in [2] is on record as “greater than 25 fold”.

Usually IC50 stands for the concentration that inhibits the measured activity by half. For `CNCc1cc2cc3c(cc2n1C)CCc1c-3[nH]c(=O)c(C(=O)O)c1O.Cl` [Compound 5a], the MIC in [1] (Escherichia coli, SKM18, read-out: MIC E. coli^R1, E. coli SKM18) came out at 7.8 µg/mL; in series [2], 7.8 µg/mL. Besides, the IC50 in series [6] (setting [12]) turned out to be 900 nM.

Consider `CCNCc1cc2cc3c(cc2n1C)CCCc1c-3[nH]c(=O)c(C(=O)O)c1O` [Compound 6a, 10-((Ethylamino)methyl)-4-hydroxy-9-methyl-2-oxo-1,2,5,6,7,9-hexahydropyrido[3′,2′:6,7]cyclohepta[1,2-f]indole-3-carboxylic Acid Hydrochloride], for which the IC50 in series [6] (E. coli DNA gyrase IC50, gyrase^WT) is 560 nM; in [6] (setting [12]), 100 nM; in series [7], greater than 100000 nM.

With `CCNCc1cc2cc3c(cc2n1C)NCCc1c-3[nH]c(=O)c(C(=O)O)c1O` [Compound 6g], the MIC in [2] lay in the range of 7.8 to 31.3 µg/mL (≈ 20.4 to 81.8 µM).

In general, AUC(0-t) refers to the area under the concentration-time curve up to a stated or last time point. As a reminder, the clearance is the rate of elimination divided by the concentration. The low end stands for a low capacity for elimination, the high end for a high capacity for elimination. In [8] (pH 8), `CC(C)NCc1cc2cc3c(cc2n1C)CCCc1c-3[nH]c(=O)c(C(=O)O)c1O` [Compound 6i, 4-Hydroxy-10-((isopropylamino)methyl)-9-methyl-2-oxo-1,2,5,6,7,9-hexahydropyrido[3′,2′:6,7]cyclohepta[1,2-f]indole-3-carboxylic Acid Hydrochloride] yielded an area under the curve AUC(0-t) at 24 h of 1810 ng·h/mL. Also, in series [8] (pH 8), the clearance amounted to 64 mL/min/kg. In addition, the IC50 in series [6] (E. coli DNA gyrase IC50) is 2700 nM; in [7], greater than 100000 nM.

In the case of `CC(C)NCc1cc2cc3c(cc2n1C)NCCc1c-3[nH]c(=O)c(C(=O)O)c1O` [Compound 6l], the MIC in series [2] lay in the range of 7.8 to 31.3 µg/mL (≈ 19.7 to 79 µM).

In series [8] (pH 4), `Cn1c(CNC2(C)CCC2)cc2cc3c(cc21)CCCc1c-3[nH]c(=O)c(C(=O)O)c1O` [Compound 6p, 4-Hydroxy-9-methyl-10-(((1-methylcyclobutyl)amino)methyl)-2-oxo-1,2,5,6,7,9-hexahydropyrido[3′,2′:6,7]cyclohepta[1,2-f]indole-3-carboxylic Acid Hydrochloride] had an AUC(0-t) at 24 h of 4580 ng·h/mL and a clearance of 35 mL/min/kg. Also, the responders at 20 mg/kg in [9] amounted to 0%.

In series [8] (pH 8), `Cn1c(CNC2(C)CCC2)cc2cc3c(cc21)OCCc1c-3[nH]c(=O)c(C(=O)O)c1O` [Compound 6q, 4-Hydroxy-9-methyl-10-(((1-methylcyclobutyl)amino)methyl)-2-oxo-2,5,6,9-tetrahydro-1H-pyrido[2′,3′:4,5]oxepino[3,2-f]indole-3-carboxylic Acid Hydrochloride] displayed an AUC(0-t) at 24 h of 4420 ng·h/mL and a clearance of 37 mL/min/kg. The compound also returned an IC50 in series [6] (E. coli DNA gyrase IC50) of 730 nM. Moreover, the IC50 in [7] is greater than 100000 nM. Moreover, in series [10] (Acinetobacter baumannii, read-out: A. baumannii MIC range), the MIC was 0.06 to 16 µg/mL.

Regarding `CN(C)Cc1cc2cc3c(cc2n1C)CCCc1c-3[nH]c(=O)c(C(=O)O)c1O` [Compound 6r, 10-((Dimethylamino)methyl)-4-hydroxy-9-methyl-2-oxo-1,2,5,6,7,9-hexahydropyrido[3′,2′:6,7]cyclohepta[1,2-f]indole-3-carboxylic Acid Hydrochloride], in series [8] (pH 8), the AUC(0-t) at 24 h is 3520 ng·h/mL and the clearance amounted to 47 mL/min/kg. For the same compound, the responders at 20 mg/kg in [9] turned out to be 100%. This compound also showed an IC50 in [6] (E. coli DNA gyrase IC50) of 410 nM. The concentration for half-maximal inhibition (IC50) in [7] is greater than 100000 nM.

On to `CN(C)Cc1cc2cc3c(cc2n1C)OCCc1c-3[nH]c(=O)c(C(=O)O)c1O` [Compound 6s, 10-((Dimethylamino)methyl)-4-hydroxy-9-methyl-2-oxo-2,5,6,9-tetrahydro-1H-pyrido[2′,3′:4,5]oxepino[3,2-f]indole-3-carboxylic Acid Hydrochloride], for which, in [8] (pH 4), the AUC(0-t) at 24 h worked out at 2930 ng·h/mL and the clearance turned out to be 53 mL/min/kg. The responders at 20 mg/kg in series [9] stood at 100%. The compound also had a concentration for half-maximal inhibition (IC50) in series [6] (E. coli DNA gyrase IC50) of 490 nM. Further, the IC50 in series [7] is greater than 100000 nM.

As usually defined, the MIC90 is the lowest concentration that inhibits either 90% of growth or 90% of the strains tested, depending on the study. In turn, `Cn1c(CN2CCCC2)cc2cc3c(cc21)CCCc1c-3[nH]c(=O)c(C(=O)O)c1O` [Compound 6v, 4-Hydroxy-9-methyl-2-oxo-10-(pyrrolidin-1-ylmethyl)-1,2,5,6,7,9-hexahydropyrido[3′,2′:6,7]cyclohepta[1,2-f]indole-3-carboxylic Acid Hydrochloride] yielded an AUC(0-t) at 24 h in [8] (pH 8) of 4050 ng·h/mL. This compound had a clearance in [8] (pH 8) of 41 mL/min/kg. Also, in series [9], the responders at 20 mg/kg was 100%. The “E. coli MIC90” value in series [11] (12 strains, Mueller Hinton II broth) is 1 µg/mL. The MIC90 was in the range of 0.5 to 1 µg/mL in series [11] (Escherichia coli, read-out: E. coli MIC90, 12 strains, Mueller Hinton II broth) and 8 to 16 µg/mL in series [10] (Acinetobacter baumannii, read-out: A. baumannii MIC90, 12 strains, Mueller Hinton II broth). The IC50 in series [6] (E. coli DNA gyrase IC50) is 210 nM; in series [7], greater than 100000 nM.

Turning to `Cn1c(CN2CCCC2)cc2cc3c(cc21)OCCc1c-3[nH]c(=O)c(C(=O)O)c1O` [Compound 6w, 4-Hydroxy-9-methyl-2-oxo-10-(pyrrolidin-1-ylmethyl)-2,5,6,9-tetrahydro-1H-pyrido[2′,3′:4,5]oxepino[3,2-f]indole-3-carboxylic Acid Hydrochloride], the IC50 in series [6] (E. coli DNA gyrase IC50) is 280 nM; in series [7], greater than 100000 nM.

As to `CO/N=C(\C(=O)N[C@@H]1C(=O)N2C(C(=O)[O-])=C(C[N+]3(C)CCCC3)CS[C@H]12)c1csc(N)n1` [cefepime, reference compound], the “MIC E. coli^R1” value in [1] came to 0.05 µg/mL (≈ 0.104 µM). Also, the “MIC E. coli^WT” value in series [2] stood at 0.05 µg/mL (≈ 0.104 µM). Besides, in [3], the “MIC A. bau^R” value was 0.78 µg/mL (≈ 1.62 µM). In series [4], the “MIC A. bau^WT” value was 0.78 µg/mL (≈ 1.62 µM). The “MIC K. pneu^WT” value in series [5] was determined as 0.02 µg/mL (≈ 0.0416 µM).

Turning to `C[C@H]1COc2c(N3CCN(C)CC3)c(F)cc3c(=O)c(C(=O)O)cn1c23.C[C@H]1COc2c(N3CCN(C)CC3)c(F)cc3c(=O)c(C(=O)O)cn1c23.O` [levofloxacin, reference compound], the “E. coli MIC range” value in [11] (12 strains) was in the range of 0.015 to 32 µg/mL. In addition, in series [10] (12 strains), the “A. baumannii MIC range” value is 0.06 to 64 µg/mL.

Take `CN(C)c1cc(NC(=O)CNC(C)(C)C)c(O)c2c1C[C@H]1C[C@H]3[C@H](N(C)C)C(O)=C(C(N)=O)C(=O)[C@@]3(O)C(O)=C1C2=O` [tigecycline, reference compound]: in series [1], the “MIC E. coli^R1” value was 0.25 µg/mL (≈ 0.427 µM). Further, the “MIC E. coli^WT” value in series [2] is 0.13 µg/mL (≈ 0.222 µM). Further, the “MIC A. bau^R” value in series [3] is 0.78 µg/mL (≈ 1.33 µM). Further, the “MIC A. bau^WT” value in series [4] worked out at 0.78 µg/mL (≈ 1.33 µM). The “MIC K. pneu^WT” value in series [5] was determined as 0.13 µg/mL (≈ 0.222 µM).
